Assay results as given in the supplement of paper PMC6045584.
± gives the standard deviation of the averaged measurements.

What was measured:
LAPATINIB = compound: CS(=O)(=O)CCNCc1ccc(-c2ccc3ncnc(Nc4ccc(OCc5cccc(F)c5)c(Cl)c4)c3c2)o1 [LAPATINIB]; test: surviving fraction relative to DMSO-only wells; higher = less growth inhibition; settings: exposure time: 5 days
Procedure, shortened: (§1)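 Tumour cell lines in log phase were plated in 384-well plates at 250–500 cells per well, then, after 24 hours, exposed continuously for five days to inhibitors at 0.5, 1, 5, 10, 50, 100, 500 and 1000 nM. Viability came from CellTiter-Glo luminescence, and surviving fraction is that signal normalised to the median of DMSO-only wells. Plates were read after 10 minutes at room temperature, and each line, screened three times, was kept only when replicate Pearson r was >0.7 and median Z' was >0.3.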

DECITABINE = compound: Nc1ncn([C@H]2C[C@H](O)[C@@H](CO)O2)c(=O)n1 [DECITABINE]; test: as above; settings: exposure time: 5 days
Procedure, shortened: as §1

Row | Test System | surviving fraction (LAPATINIB; 0.5 nM) | surviving fraction (LAPATINIB; 1 nM) | surviving fraction (LAPATINIB; 5 nM) | surviving fraction (LAPATINIB; 10 nM) | surviving fraction (LAPATINIB; 50 nM) | surviving fraction (LAPATINIB; 100 nM) | surviving fraction (LAPATINIB; 500 nM) | surviving fraction (LAPATINIB; 1000 nM) | surviving fraction (DECITABINE; 0.5 nM) | surviving fraction (DECITABINE; 1 nM) | surviving fraction (DECITABINE; 5 nM) | surviving fraction (DECITABINE; 10 nM) | surviving fraction (DECITABINE; 50 nM) | surviving fraction (DECITABINE; 100 nM) | surviving fraction (DECITABINE; 500 nM) | surviving fraction (DECITABINE; 1000 nM)
1 | HCC1395 BREAST | 0.928 ± 0.083 | 0.972 ± 0.072 | 0.998 ± 0.082 | 0.975 ± 0.16 | 0.919 ± 0.12 | 1.09 ± 0.061 | 1.02 ± 0.083 | 0.993 ± 0.15 | 1.19 ± 0.054 | 0.956 ± 0.1 | 1.34 ± 0.079 | 1.23 ± 0.072 | 1.26 ± 0.045 | 1.25 ± 0.086 | 1.17 ± 0.073 | 1.09 ± 0.031
2 | HCC1806 BREAST | 1.01 ± 0.083 | 1.12 ± 0.028 | 1.09 ± 0.04 | 1.09 ± 0.079 | 0.992 ± 0.018 | 1.11 ± 0.033 | 0.715 ± 0.025 | 0.65 ± 0.082 | 0.937 ± 0.083 | 0.698 ± 0.11 | 0.531 ± 0.02 | 0.483 ± 0.031 | 0.256 ± 0.039 | 0.159 ± 0.0035 | 0.083 ± 0.012 | 0.0507 ± 0.008
3 | HCC1954 BREAST | 0.905 ± 0.087 | 1.08 ± 0.058 | 1.04 ± 0.023 | 1.01 ± 0.12 | 0.823 ± 0.037 | 0.804 ± 0.092 | 0.387 ± 0.016 | 0.387 ± 0.039 | 1.07 ± 0.19 | 1.05 ± 0.13 | 1.32 ± 0.13 | 1.32 ± 0.05 | 1.13 ± 0.13 | 1.22 ± 0.023 | 1.29 ± 0.044 | 1.08 ± 0.044
4 | HCT15 LARGE INTESTINE | 1.01 ± 0.082 | 1.12 ± 0.098 | 1.04 ± 0.059 | 1.06 ± 0.076 | 0.988 ± 0.078 | 1.08 ± 0.07 | 1.04 ± 0.032 | 1.05 ± 0.071 | 1 ± 0.02 | 0.982 ± 0.056 | 0.967 ± 0.021 | 0.961 ± 0.017 | 1.05 ± 0.032 | 0.987 ± 0.032 | 0.835 ± 0.026 | 0.893 ± 0.032
5 | HELA CERVIX | 1.08 ± 0.1 | 1.23 ± 0.065 | 1.05 ± 0.043 | 1.04 ± 0.038 | 1.1 ± 0.029 | 1.15 ± 0.12 | 1.16 ± 0.09 | 1.16 ± 0.037 | 1.03 ± 0.043 | 0.9852 ± 0.0096 | 1.05 ± 0.043 | 1 ± 0.017 | 1.1 ± 0.03 | 1.08 ± 0.017 | 1.15 ± 0.065 | 0.944 ± 0.032
6 | HOS BONE | 1.017 ± 0.01 | 1.082 ± 0.01 | 1.059 ± 0.01 | 1.03 ± 0.011 | 1.05 ± 0.023 | 1.05 ± 0.034 | 1.039 ± 0.0051 | 1.04 ± 0.018 | 1.01 ± 0.039 | 1.02 ± 0.018 | 1.03 ± 0.031 | 0.995 ± 0.011 | 1.06 ± 0.015 | 1.02 ± 0.015 | 0.8753 ± 0.0038 | 0.731 ± 0.029
7 | HOSMNG BONE | 0.92 ± 0.06 | 1.04 ± 0.05 | 0.88 ± 0.081 | 0.827 ± 0.12 | 0.848 ± 0.064 | 0.867 ± 0.11 | 0.89 ± 0.084 | 1.06 ± 0.08 | 1.04 ± 0.043 | 1.03 ± 0.057 | 1.02 ± 0.061 | 1.02 ± 0.072 | 1.1 ± 0.036 | 1.12 ± 0.086 | 1.1 ± 0.12 | 1.11 ± 0.046
8 | HSSYII SYNOVIAL | 0.98 ± 0.042 | 0.943 ± 0.022 | 0.947 ± 0.051 | 0.973 ± 0.033 | 0.947 ± 0.064 | 1.04 ± 0.087 | 0.969 ± 0.034 | 0.927 ± 0.01 | 0.972 ± 0.032 | 1.01 ± 0.046 | 0.933 ± 0.048 | 0.938 ± 0.073 | 0.86 ± 0.049 | 0.696 ± 0.024 | 0.48 ± 0.012 | 0.348 ± 0.036
9 | HT1080 SOFT TISSUE | 0.997 ± 0.044 | 1.06 ± 0.013 | 1.02 ± 0.017 | 1.05 ± 0.016 | 1.04 ± 0.016 | 1.02 ± 0.048 | 1.01 ± 0.021 | 1.05 ± 0.076 | 1.1 ± 0.043 | 1.08 ± 0.042 | 1.07 ± 0.024 | 1.1 ± 0.058 | 0.964 ± 0.026 | 0.928 ± 0.083 | 0.665 ± 0.06 | 0.627 ± 0.016
10 | HU09 BONE | 0.937 ± 0.082 | 0.937 ± 0.031 | 1.04 ± 0.1 | 1.04 ± 0.089 | 1 ± 0.056 | 1.04 ± 0.13 | 0.891 ± 0.043 | 0.798 ± 0.021 | 0.982 ± 0.083 | 0.968 ± 0.081 | 1.12 ± 0.13 | 0.997 ± 0.072 | 1.17 ± 0.13 | 1.04 ± 0.027 | 0.95 ± 0.084 | 0.847 ± 0.034
11 | HUO3N1 BONE | 1.05 ± 0.044 | 0.978 ± 0.069 | 1.08 ± 0.038 | 1.084 ± 0.01 | 1.02 ± 0.037 | 1.06 ± 0.043 | 0.876 ± 0.15 | 1 ± 0.065 | 0.958 ± 0.022 | 0.99 ± 0.024 | 1.03 ± 0.056 | 1.05 ± 0.019 | 1.04 ± 0.022 | 1 ± 0.014 | 0.901 ± 0.017 | 0.879 ± 0.025
12 | JIMT1 BREAST | 0.991 ± 0.035 | 1.02 ± 0.04 | 1.05 ± 0.039 | 1.01 ± 0.024 | 1 ± 0.035 | 1.01 ± 0.066 | 0.907 ± 0.065 | 0.783 ± 0.019 | 1.04 ± 0.021 | 0.999 ± 0.032 | 1 ± 0.018 | 0.9743 ± 0.0064 | 0.933 ± 0.038 | 0.819 ± 0.048 | 0.546 ± 0.036 | 0.471 ± 0.03
13 | JURKAT HAEMATOPOIETIC AND LYMPHOID TISSUE | 0.997 ± 0.078 | 1.02 ± 0.061 | 0.936 ± 0.037 | 0.959 ± 0.017 | 0.933 ± 0.055 | 0.947 ± 0.025 | 1.01 ± 0.012 | 1.011 ± 0.0081 | 1 ± 0.04 | 1.06 ± 0.025 | 0.823 ± 0.022 | 0.746 ± 0.034 | 0.121 ± 0.0055 | 0.072 ± 0.003 | 0.0327 ± 0.00058 | 0.028 ± 0.001
14 | KPD BONE | 0.984 ± 0.055 | 1.08 ± 0.03 | 1.05 ± 0.02 | 1.03 ± 0.049 | 1.09 ± 0.06 | 1.08 ± 0.066 | 0.956 ± 0.08 | 0.951 ± 0.094 | 0.916 ± 0.057 | 0.919 ± 0.053 | 0.801 ± 0.022 | 0.692 ± 0.056 | 0.534 ± 0.023 | 0.464 ± 0.012 | 0.379 ± 0.026 | 0.353 ± 0.044
15 | LM7 BONE | 0.936 ± 0.046 | 1.07 ± 0.079 | 1.1 ± 0.034 | 1.1 ± 0.042 | 0.99 ± 0.057 | 1.06 ± 0.02 | 0.991 ± 0.022 | 0.955 ± 0.041 | 0.939 ± 0.025 | 1 ± 0.035 | 1.05 ± 0.05 | 0.983 ± 0.061 | 0.939 ± 0.027 | 0.91 ± 0.042 | 0.749 ± 0.044 | 0.742 ± 0.048
16 | LNCAP PROSTATE | 0.894 ± 0.055 | 0.981 ± 0.02 | 0.917 ± 0.086 | 0.981 ± 0.033 | 0.937 ± 0.061 | 0.891 ± 0.038 | 0.995 ± 0.035 | 0.951 ± 0.21 | 0.917 ± 0.037 | 1.02 ± 0.11 | 0.954 ± 0.083 | 1.01 ± 0.11 | 0.785 ± 0.02 | 0.695 ± 0.1 | 0.634 ± 0.044 | 0.522 ± 0.0079
17 | MCF7 BREAST | 0.988 ± 0.053 | 0.921 ± 0.032 | 0.931 ± 0.049 | 0.962 ± 0.043 | 0.961 ± 0.057 | 0.946 ± 0.096 | 0.946 ± 0.061 | 0.916 ± 0.023 | 0.932 ± 0.022 | 0.906 ± 0.065 | 0.887 ± 0.02 | 0.803 ± 0.02 | 0.843 ± 0.04 | 0.861 ± 0.026 | 0.842 ± 0.034 | 0.83 ± 0.043
18 | MDAMB134 BREAST | 0.967 ± 0.017 | 0.963 ± 0.1 | 0.975 ± 0.028 | 1 ± 0.14 | 1.04 ± 0.19 | 0.966 ± 0.083 | 0.956 ± 0.071 | 0.806 ± 0.062 | 0.979 ± 0.082 | 1.06 ± 0.26 | 1.04 ± 0.1 | 1.02 ± 0.023 | 1.1 ± 0.12 | 1.25 ± 0.059 | 1.15 ± 0.042 | 1.22 ± 0.016
19 | MDAMB157 BREAST | 1 ± 0.11 | 0.991 ± 0.11 | 1.09 ± 0.034 | 1.04 ± 0.095 | 1.01 ± 0.064 | 1.008 ± 0.0098 | 0.951 ± 0.082 | 0.931 ± 0.041 | 0.998 ± 0.013 | 0.907 ± 0.046 | 0.922 ± 0.13 | 0.897 ± 0.065 | 0.632 ± 0.042 | 0.547 ± 0.058 | 0.41 ± 0.075 | 0.382 ± 0.059
20 | MDAMB231 BREAST | 0.9471 ± 0.0072 | 1.01 ± 0.032 | 0.986 ± 0.029 | 0.9838 ± 0.0088 | 0.96 ± 0.019 | 1.02 ± 0.012 | 1.013 ± 0.0062 | 1.01 ± 0.021 | 1 ± 0.034 | 0.986 ± 0.024 | 1.01 ± 0.028 | 1 ± 0.022 | 1.01 ± 0.021 | 0.965 ± 0.013 | 0.865 ± 0.016 | 0.835 ± 0.039
21 | MDAMB361 BREAST | 0.891 ± 0.12 | 0.823 ± 0.11 | 0.902 ± 0.096 | 0.874 ± 0.065 | 0.864 ± 0.028 | 0.711 ± 0.041 | 0.724 ± 0.096 | 0.672 ± 0.069 | 0.895 ± 0.057 | 0.909 ± 0.034 | 0.938 ± 0.08 | 0.875 ± 0.038 | 0.906 ± 0.19 | 0.915 ± 0.17 | 0.99 ± 0.2 | 0.921 ± 0.084
